≈ marks a conversion by molar mass, not a printed value.
Legend:
Format in all cases: functional
Conditions in all cases: read-out: ED50 (the source's name)
XF498 = assay: Cytotoxicity against human XF498 cells
SK-MEL-2 = assay: Cytotoxicity against human SK-MEL-2 cells
A549 = assay: Cytotoxicity against human A549 cells
HCT-15 = assay: Cytotoxicity against human HCT15 cells
SK-OV-3 = assay: Cytotoxicity against human SK-OV-3 cells

SMILES	EC50 (XF498) [µg/mL]	EC50 (SK-MEL-2) [µg/mL]	EC50 (A549) [µg/mL]	EC50 (HCT-15) [µg/mL]	EC50 (SK-OV-3) [µg/mL]
C=CCCCCCCCC#CC#C/C=C\C(C)=O [MONTIPORYINE D]	> 50	43.1 (≈ 178 µM)	> 50	> 50	45.1 (≈ 186 µM)
CCCCCCCC#CC#C/C=C/C(C)=O [MONTIPORYNE A]	1.9 (≈ 8.78 µM)	1.4 (≈ 6.47 µM)	> 50	3.7 (≈ 17.1 µM)	3.2 (≈ 14.8 µM)
CCCCCCCC#CC#C/C=C\C(C)=O [MONTIPORYNE B]	> 50	42.6 (≈ 197 µM)	> 50	> 50	25.9 (≈ 120 µM)
CCCCCCCC#CC#CC1=CC(=O)NCCC1 [MONTIPORYINE E]	> 50	> 50	> 50	> 50	> 50
CCCCCCCC#CC#CC1CC(=O)C=C(C)C1 (stereo not given) [MONTIPORYINE F]	31.3 (≈ 122 µM)	36.7 (≈ 143 µM)	> 50	45.1 (≈ 176 µM)	29.2 (≈ 114 µM)
C=CCCCCCCCC#CC#C/C=C/C(C)=O [MONTIPORYNE C]	3.2 (≈ 13.2 µM)	1.5 (≈ 6.19 µM)	> 50	5.2 (≈ 21.5 µM)	2.5 (≈ 10.3 µM)

— ChEMBL document CHEMBL1155622, “New acetylenic compounds from the stony coral Montipora sp” (2000)
